{
  "source": "the NIST ThermoML archive (doi:10.1021/je900064e)",
  "key": {"[1]": {"settings": "101.33 kPa, Liquid; for speed of sound: Sing-around technique in a fixed-path interferometer"}, "[2]": {"experiment": "φn = volume fraction of the nth substance listed", "settings": "101 kPa, Liquid, φ1 = 0.5"}},
  "note": "“And” between values parts separate entries of the source, which are not always exact repeats. Equal entries are not always repeated. Numbers after ± are expanded uncertainties.",
  "data": [
    {"smiles": "OCCN(CCO)CCO", "note": "[triethanolamine]", "values": [
      {"measurement": "mass density", "setting": "[1]; 288.15 K", "result": "1126.19 ± 2.2", "unit": "kg/m3"},
      {"measurement": "speed of sound", "setting": "[1]; 288.15 K", "result": "1631.1 ± 3.4", "unit": "m/s"},
      {"measurement": "mass density", "setting": "[1]; 293.15 K", "result": "1123.42 ± 2.1", "unit": "kg/m3"},
      {"measurement": "speed of sound", "setting": "[1]; 293.15 K", "result": "1623.9 ± 3.3", "unit": "m/s"},
      {"measurement": "mass density", "setting": "[1]; 298.15 K", "result": "1120.99 ± 2.1", "unit": "kg/m3"},
      {"measurement": "speed of sound", "setting": "[1]; 298.15 K", "result": "1614.5 ± 3.3", "unit": "m/s"},
      {"measurement": "mass density", "setting": "[1]; 303.15 K", "result": "1118.21 ± 2.1", "unit": "kg/m3"},
      {"measurement": "speed of sound", "setting": "[1]; 303.15 K", "result": "1604.5 ± 3.3", "unit": "m/s"},
      {"measurement": "mass density", "setting": "[1]; 308.15 K", "result": "1115.38 ± 2.1", "unit": "kg/m3"},
      {"measurement": "speed of sound", "setting": "[1]; 308.15 K", "result": "1595.5 ± 3.3", "unit": "m/s"},
      {"measurement": "mass density", "setting": "[1]; 313.15 K", "result": "1112.57 ± 2.1", "unit": "kg/m3"},
      {"measurement": "speed of sound", "setting": "[1]; 313.15 K", "result": "1587 ± 3.3", "unit": "m/s"},
      {"measurement": "mass density", "setting": "[1]; 318.15 K", "result": "1109.78 ± 2.1", "unit": "kg/m3"},
      {"measurement": "speed of sound", "setting": "[1]; 318.15 K", "result": "1578.8 ± 3.3", "unit": "m/s"},
      {"measurement": "mass density", "setting": "[1]; 323.15 K", "result": "1106.93 ± 2", "unit": "kg/m3"},
      {"measurement": "speed of sound", "setting": "[1]; 323.15 K", "result": "1570.6 ± 3.3", "unit": "m/s"}
    ]},
    {"smiles": "CCO", "note": "[ethanol] + O", "values": [
      {"measurement": "mass density", "setting": "[2]; 288.15 K", "result": "930.86 ± 0.7", "unit": "kg/m3"},
      {"measurement": "speed of sound", "setting": "[2]; 288.15 K", "result": "1546.7 ± 3.2", "unit": "m/s"},
      {"measurement": "mass density", "setting": "[2]; 293.15 K", "result": "927.08 ± 0.71", "unit": "kg/m3"},
      {"measurement": "speed of sound", "setting": "[2]; 293.15 K", "result": "1534.1 ± 3.2", "unit": "m/s"},
      {"measurement": "mass density", "setting": "[2]; 298.15 K", "result": "923.22 ± 0.72", "unit": "kg/m3"},
      {"measurement": "speed of sound", "setting": "[2]; 298.15 K", "result": "1521.1 ± 3.2", "unit": "m/s"},
      {"measurement": "mass density", "setting": "[2]; 303.15 K", "result": "919.31 ± 0.73", "unit": "kg/m3"},
      {"measurement": "speed of sound", "setting": "[2]; 303.15 K", "result": "1507.9 ± 3.2", "unit": "m/s"},
      {"measurement": "mass density", "setting": "[2]; 308.15 K", "result": "915.32 ± 0.74", "unit": "kg/m3"},
      {"measurement": "speed of sound", "setting": "[2]; 308.15 K", "result": "1494.5 ± 3.2", "unit": "m/s"},
      {"measurement": "mass density", "setting": "[2]; 313.15 K", "result": "911.27 ± 0.75", "unit": "kg/m3"},
      {"measurement": "speed of sound", "setting": "[2]; 313.15 K", "result": "1480.9 ± 3.2", "unit": "m/s"},
      {"measurement": "mass density", "setting": "[2]; 318.15 K", "result": "908.03 ± 0.76 kg/m3 and 907.3 ± 0.76 kg/m3"},
      {"measurement": "speed of sound", "setting": "[2]; 318.15 K", "result": "1467 ± 3.1", "unit": "m/s"},
      {"measurement": "mass density", "setting": "[2]; 323.15 K", "result": "904.32 ± 0.77 kg/m3 and 903.71 ± 0.77 kg/m3"},
      {"measurement": "speed of sound", "setting": "[2]; 323.15 K", "result": "1452.9 ± 3.1", "unit": "m/s"}
    ]},
    {"smiles": "CN(CCO)CCO", "note": "[N-methyldiethanolamine]", "values": [
      {"measurement": "speed of sound", "setting": "[1]; 288.15 K", "result": "1598.8 ± 3.3", "unit": "m/s"},
      {"measurement": "mass density", "setting": "[1]; 288.15 K, Vibrating tube method", "result": "1044.32 ± 1.2", "unit": "kg/m3"},
      {"measurement": "speed of sound", "setting": "[1]; 293.15 K", "result": "1583.1 ± 3.3", "unit": "m/s"},
      {"measurement": "mass density", "setting": "[1]; 293.15 K, Vibrating tube method", "result": "1040.59 ± 1.2", "unit": "kg/m3"},
      {"measurement": "speed of sound", "setting": "[1]; 298.15 K", "result": "1564.1 ± 3.3", "unit": "m/s"},
      {"measurement": "mass density", "setting": "[1]; 298.15 K, Vibrating tube method", "result": "1036.79 ± 1.2", "unit": "kg/m3"},
      {"measurement": "speed of sound", "setting": "[1]; 303.15 K", "result": "1546 ± 3.2", "unit": "m/s"},
      {"measurement": "mass density", "setting": "[1]; 303.15 K, Vibrating tube method", "result": "1033.06 ± 1.2", "unit": "kg/m3"},
      {"measurement": "speed of sound", "setting": "[1]; 308.15 K", "result": "1531 ± 3.2", "unit": "m/s"},
      {"measurement": "mass density", "setting": "[1]; 308.15 K, Vibrating tube method", "result": "1029.26 ± 1.2", "unit": "kg/m3"},
      {"measurement": "speed of sound", "setting": "[1]; 313.15 K", "result": "1516.1 ± 3.2", "unit": "m/s"},
      {"measurement": "mass density", "setting": "[1]; 313.15 K, Vibrating tube method", "result": "1025.45 ± 1.1", "unit": "kg/m3"},
      {"measurement": "speed of sound", "setting": "[1]; 318.15 K", "result": "1503.2 ± 3.2", "unit": "m/s"},
      {"measurement": "mass density", "setting": "[1]; 318.15 K, Vibrating tube method", "result": "1021.62 ± 1.1", "unit": "kg/m3"},
      {"measurement": "speed of sound", "setting": "[1]; 323.15 K", "result": "1490.4 ± 3.2", "unit": "m/s"},
      {"measurement": "mass density", "setting": "[1]; 323.15 K, Vibrating tube method", "result": "1018.22 ± 1.1", "unit": "kg/m3"}
    ]}
  ]
}
